{"source": "ChEMBL document CHEMBL5584236", "about": "“Development of novel bisphenol derivatives with a membrane-targeting mechanism as potent gram-positive antibacterial agents” (Eur J Med Chem, 2024)", "key": {"Staphylococcus aureus [1]": {"test_system": "Staphylococcus aureus", "assay": "Antibacterial activity against methicillin-resistant Staphylococcus aureus NCTC10442 assessed as reduction in microbial growth incubated for 22 to 24 hrs by CLSI based broth microdilution method", "assay_type": "functional", "conditions": "time 22-24 hrs"}, "Acinetobacter baumannii [2]": {"test_system": "Acinetobacter baumannii", "assay": "Antibacterial activity against Acinetobacter baumannii ATCC17978 assessed as reduction in microbial growth incubated for 22 to 24 hrs by CLSI based broth microdilution method", "assay_type": "functional", "conditions": "time 22-24 hrs"}, "[3]": {"assay": "Cytotoxicity against mouse NCTC clone 929 cells assessed as viable cells at 25 ug/ml incubated for 24 hrs by CCK-8 assay relative to control", "assay_type": "toxicity, cell-based", "conditions": "NCTC clone 929 (L929) cells, at 25 µg/mL, read-out: Activity"}, "Staphylococcus aureus [4]": {"test_system": "Staphylococcus aureus", "assay": "Bactericidal activity against methicillin-resistant Staphylococcus aureus NCTC10442 assessed as cell killing at 4 times of MIC measured with in 2 hrs by time kill assay relative to control", "assay_type": "functional"}, "Acinetobacter baumannii [5]": {"test_system": "Acinetobacter baumannii", "assay": "Antibacterial activity against Acinetobacter baumannii R28889 assessed as reduction in microbial growth incubated for 22 to 24 hrs by CLSI based broth microdilution method", "assay_type": "functional", "conditions": "time 22-24 hrs"}, "[6]": {"assay": "Hemolytic activity against rabbit RBC incubated for 1 hr by multimode plate reader", "assay_type": "toxicity, cell-based, Oryctolagus cuniculus, Erythrocyte", "conditions": "rabbit red blood cells (erythrocytes)"}, "Staphylococcus aureus [7]": {"test_system": "Staphylococcus aureus", "assay": "Antibacterial activity against methicillin-resistant Staphylococcus aureus N315 assessed as reduction in microbial growth incubated for 22 to 24 hrs by CLSI based broth microdilution method", "assay_type": "functional", "conditions": "time 22-24 hrs"}, "Staphylococcus aureus [8]": {"test_system": "Staphylococcus aureus", "assay": "Antibacterial activity against Staphylococcus aureus ATCC29213 assessed as reduction in bacterial growth incubated for 22 to 24 hrs in presence of CaCl2 by CLSI based broth microdilution method", "assay_type": "functional", "conditions": "time 22-24 hrs"}, "Staphylococcus aureus [9]": {"test_system": "Staphylococcus aureus", "assay": "Antibacterial activity against methicillin-resistant Staphylococcus aureus NCTC10442 assessed as reduction in bacterial growth incubated for 22 to 24 hrs in presence of CaCl2 by CLSI based broth microdilution method", "assay_type": "functional", "conditions": "time 22-24 hrs"}, "[10]": {"assay": "Cytotoxicity against HEK293 cells assessed as viable cells at 12.5 ug/ml incubated for 24 hrs by CCK-8 assay relative to control", "assay_type": "toxicity, cell-based", "conditions": "human, at 12.5 µg/mL, read-out: Activity"}, "Staphylococcus aureus [11]": {"test_system": "Staphylococcus aureus", "assay": "Antibacterial activity against Staphylococcus aureus ATCC29213 infected in C57BL6 mouse corneal infection model assessed as log reduction in CFU at 0.5 % administered topically on corneas for four times in 3 days by MHA plate counting method", "assay_type": "functional", "conditions": "route top, time 3 day"}, "[12]": {"assay": "Cytotoxicity against mouse NCTC clone 929 cells assessed as viable cells at 100 ug/ml incubated for 24 hrs by CCK-8 assay relative to control", "assay_type": "toxicity, cell-based", "conditions": "NCTC clone 929 (L929) cells, at 100 µg/mL, read-out: Activity"}, "Klebsiella pneumoniae [13]": {"test_system": "Klebsiella pneumoniae", "assay": "Synergistic […] activity against Klebsiella pneumoniae ATCC10031 assessed as fractional inhibitory concentration index incubated for 22 to 24 hrs in presence of levofloxacin by CLSI based broth microdilution method", "assay_type": "functional", "conditions": "time 22-24 hrs"}, "Staphylococcus aureus [14]": {"test_system": "Staphylococcus aureus", "assay": "Antibacterial activity against methicillin-resistant Staphylococcus aureus N315 assessed as reduction in bacterial growth incubated for 22 to 24 hrs in presence of KCl by CLSI based broth microdilution method", "assay_type": "functional", "conditions": "time 22-24 hrs"}, "Staphylococcus aureus [15]": {"test_system": "Staphylococcus aureus", "assay": "Antibacterial activity against methicillin-resistant Staphylococcus aureus N315 assessed as reduction in bacterial growth incubated for 22 to 24 hrs in presence of FeCl3 by CLSI based broth microdilution method", "assay_type": "functional", "conditions": "time 22-24 hrs"}, "Staphylococcus aureus [16]": {"test_system": "Staphylococcus aureus", "assay": "Antibacterial activity against methicillin-resistant Staphylococcus aureus NCTC10442 assessed as reduction in bacterial growth incubated for 22 to 24 hrs in presence of FeCl2 by CLSI based broth microdilution method", "assay_type": "functional", "conditions": "time 22-24 hrs"}, "Staphylococcus aureus [17]": {"test_system": "Staphylococcus aureus", "assay": "Synergistic […] activity against methicillin-resistant Staphylococcus aureus NCTC10442 assessed as fractional inhibitory concentration index incubated for 22 to 24 hrs in presence of mupirocin by CLSI based broth microdilution method", "assay_type": "functional", "conditions": "time 22-24 hrs"}, "Acinetobacter baumannii [18]": {"test_system": "Acinetobacter baumannii", "assay": "Synergistic […] activity against Acinetobacter baumannii ATCC17978 assessed as fractional inhibitory concentration index incubated for 22 to 24 hrs in presence of meropenem by CLSI based broth microdilution method", "assay_type": "functional", "conditions": "time 22-24 hrs"}, "Staphylococcus aureus [19]": {"test_system": "Staphylococcus aureus", "assay": "Antibacterial activity against Staphylococcus aureus ATCC29213 infected in C57BL6 mouse corneal infection model assessed as bacterial killing at 0.5 % administered topically on corneas for four times in 3 days by MHA plate counting method relative to control", "assay_type": "functional", "conditions": "route top, time 3 day"}, "Staphylococcus aureus [20]": {"test_system": "Staphylococcus aureus", "assay": "Antibacterial activity against Staphylococcus aureus ATCC29213 assessed as reduction in microbial growth incubated for 22 to 24 hrs by CLSI based broth microdilution method", "assay_type": "functional", "conditions": "time 22-24 hrs"}, "Staphylococcus aureus [21]": {"test_system": "Staphylococcus aureus", "assay": "Antibacterial activity against Staphylococcus aureus ATCC29213 assessed as reduction in bacterial growth incubated for 22 to 24 hrs in presence of FeCl3 by CLSI based broth microdilution method", "assay_type": "functional", "conditions": "time 22-24 hrs"}, "Staphylococcus aureus [22]": {"test_system": "Staphylococcus aureus", "assay": "Antibacterial activity against methicillin-resistant Staphylococcus aureus NCTC10442 assessed as reduction in bacterial growth incubated for 22 to 24 hrs in presence of NaCl by CLSI based broth microdilution method", "assay_type": "functional", "conditions": "time 22-24 hrs"}, "Staphylococcus aureus [23]": {"test_system": "Staphylococcus aureus", "assay": "Antibacterial activity against Staphylococcus aureus ATCC29213 assessed as reduction in bacterial growth incubated for 22 to 24 hrs in presence of NaCl by CLSI based broth microdilution method", "assay_type": "functional", "conditions": "time 22-24 hrs"}, "Staphylococcus aureus [24]": {"test_system": "Staphylococcus aureus", "assay": "Antibacterial activity against methicillin-resistant Staphylococcus aureus N315 assessed as reduction in bacterial growth incubated for 22 to 24 hrs in presence of MgCl2 by CLSI based broth microdilution method", "assay_type": "functional", "conditions": "time 22-24 hrs"}, "Staphylococcus aureus [25]": {"test_system": "Staphylococcus aureus", "assay": "Antibacterial activity against methicillin-resistant Staphylococcus aureus NCTC10442 assessed as reduction in bacterial growth incubated for 22 to 24 hrs in presence of ZnSO4.7H2O by CLSI based broth microdilution method", "assay_type": "functional", "conditions": "time 22-24 hrs"}, "[26]": {"assay": "Cytotoxicity against mouse NCTC clone 929 cells assessed as viable cells at 3.125 ug/ml incubated for 24 hrs by CCK-8 assay relative to control", "assay_type": "toxicity, cell-based", "conditions": "NCTC clone 929 (L929) cells, at 3.125 µg/mL, read-out: Activity"}, "Klebsiella pneumoniae [27]": {"test_system": "Klebsiella pneumoniae", "assay": "Antibacterial activity against Klebsiella pneumoniae ATCC10031 assessed as reduction in microbial growth incubated for 22 to 24 hrs by CLSI based broth microdilution method", "assay_type": "functional", "conditions": "time 22-24 hrs"}, "Escherichia coli": {"test_system": "Escherichia coli", "assay": "Induction of outer membrane permeabilization in Escherichia coli ATCC25922 assessed as increase in fluorescence intensity measured upto 1 hr by NPN uptake assay", "assay_type": "functional, organism-based"}, "[28]": {"assay": "Cytotoxicity against HEK293 cells assessed reduction in cell viability incubated for 24 hrs by CCK-8 assay", "assay_type": "toxicity, cell-based", "conditions": "human"}, "Staphylococcus aureus [29]": {"test_system": "Staphylococcus aureus", "assay": "Induction of membrane permeabilization in methicillin-resistant Staphylococcus aureus NCTC10442 assessed as increase in fluorescence intensity measured upto 60 mins by SYTOX green assay", "assay_type": "functional, organism-based"}, "[30]": {"test_system": "Staphylococcus epidermidis", "assay": "Antibacterial activity against Staphylococcus epidermidis CMCC26069 assessed as reduction in microbial growth incubated for 22 to 24 hrs by CLSI based broth microdilution method", "assay_type": "functional", "conditions": "time 22-24 hrs"}, "Staphylococcus aureus [31]": {"test_system": "Staphylococcus aureus", "assay": "Antibacterial activity against methicillin-resistant Staphylococcus aureus N315 assessed as reduction in bacterial growth incubated for 22 to 24 hrs in presence of NaCl by CLSI based broth microdilution method", "assay_type": "functional", "conditions": "time 22-24 hrs"}, "Klebsiella pneumoniae [32]": {"test_system": "Klebsiella pneumoniae", "assay": "Synergistic […] activity against Klebsiella pneumoniae ATCC10031 assessed as fractional inhibitory concentration index incubated for 22 to 24 hrs in presence of tobramycin by CLSI based broth microdilution method", "assay_type": "functional", "conditions": "time 22-24 hrs"}, "Staphylococcus aureus [33]": {"test_system": "Staphylococcus aureus", "assay": "Bactericidal activity against methicillin-resistant Staphylococcus aureus NCTC10442 assessed as cell killing at 4 to 8 times of MIC measured up to 24 hrs by time kill assay", "assay_type": "functional, organism-based"}}, "note": "Activity calls are given as the source filed them. The rule behind the calls is not given here."}
{"compound": "COC(=O)[C@H](CCCNC(=N)N)NC(=O)[C@H](CCCNC(=N)N)NC(=O)COc1ccc(S(=O)(=O)c2ccc(OC/C=C(/C)CCC=C(C)C)cc2)cc1", "values": [{"measurement": "MIC", "setting": "Staphylococcus aureus [1]", "result": 0.78, "unit": "µg/mL"}, {"measurement": "MIC", "setting": "Acinetobacter baumannii [2]", "result": 12.5, "unit": "µg/mL"}, {"measurement": "viability at 24 h, 25 ug/ml", "setting": "[3]", "result": 87.6, "unit": "%"}, {"measurement": "Activity", "setting": "Staphylococcus aureus [4]", "result": 99.99, "unit": "%"}, {"measurement": "MIC", "setting": "Acinetobacter baumannii [5]", "result": 6.25, "unit": "µg/mL"}, {"measurement": "HC50 at 1 h", "setting": "[6]", "result": "> 200", "unit": "µg/mL"}, {"measurement": "MIC", "setting": "Staphylococcus aureus [7]", "result": 0.78, "unit": "µg/mL"}, {"measurement": "MIC", "setting": "Staphylococcus aureus [8]", "result": 3.12, "unit": "µg/mL"}, {"measurement": "MIC", "setting": "Staphylococcus aureus [9]", "result": 3.12, "unit": "µg/mL"}, {"measurement": "viability at 24 h, 12.5 ug/ml", "setting": "[10]", "result": 94.2, "unit": "%"}, {"measurement": "log(activity)", "setting": "Staphylococcus aureus [11]", "result": 6.9}, {"measurement": "viability at 24 h, 100 ug/ml", "setting": "[12]", "result": 74, "unit": "%"}, {"measurement": "fractional inhibitory concentration index (FICI)", "setting": "Klebsiella pneumoniae [13]", "result": 0.56}, {"measurement": "MIC", "setting": "Staphylococcus aureus [14]", "result": 1.56, "unit": "µg/mL"}, {"measurement": "MIC", "setting": "Staphylococcus aureus [15]", "result": 1.56, "unit": "µg/mL"}, {"measurement": "MIC", "setting": "Staphylococcus aureus [16]", "result": 1.56, "unit": "µg/mL"}, {"measurement": "fractional inhibitory concentration index (FICI)", "setting": "Staphylococcus aureus [17]", "result": 1}, {"measurement": "fractional inhibitory concentration index (FICI)", "setting": "Acinetobacter baumannii [18]", "result": 0.25}, {"measurement": "Activity", "setting": "Staphylococcus aureus [19]", "result": 99.99, "unit": "%"}, {"measurement": "MIC", "setting": "Staphylococcus aureus [20]", "result": 1.56, "unit": "µg/mL"}, {"measurement": "MIC", "setting": "Staphylococcus aureus [21]", "result": 1.56, "unit": "µg/mL"}, {"measurement": "MIC", "setting": "Staphylococcus aureus [22]", "result": 1.56, "unit": "µg/mL"}, {"measurement": "MIC", "setting": "Staphylococcus aureus [23]", "result": 1.56, "unit": "µg/mL"}, {"measurement": "MIC", "setting": "Staphylococcus aureus [24]", "result": 1.56, "unit": "µg/mL"}, {"measurement": "MIC", "setting": "Staphylococcus aureus [25]", "result": 1.56, "unit": "µg/mL"}, {"measurement": "viability at 24 h, 3.125 ug/ml", "setting": "[26]", "result": 92.6, "unit": "%"}, {"measurement": "MIC", "setting": "Klebsiella pneumoniae [27]", "result": 6.25, "unit": "µg/mL"}, {"measurement": "Activity", "setting": "Escherichia coli", "result": "Dose-Dependent Effect"}, {"measurement": "CC50 at 24 h", "setting": "[28]", "result": "> 100", "unit": "µg/mL"}, {"measurement": "Activity", "setting": "Staphylococcus aureus [29]", "result": "Dose-Dependent Effect"}, {"measurement": "MIC", "setting": "[30]", "result": 1.56, "unit": "µg/mL"}, {"measurement": "MIC", "setting": "Staphylococcus aureus [31]", "result": 1.56, "unit": "µg/mL"}, {"measurement": "fractional inhibitory concentration index (FICI)", "setting": "Klebsiella pneumoniae [32]", "result": 0.375}, {"measurement": "Activity", "setting": "Staphylococcus aureus [33]", "result": "Active"}]}
